Activity calls are given as the source filed them. No cut-off for these calls is given here.
How the values were obtained:
[1] = Inhibition of PKA by filter binding assay
[2] = biological target: Dual specificity mitogen-activated protein kinase kinase 6 (Homo sapiens) (UniProt P52564); experiment: Inhibition of MKK6
[3] = biological target: Tyrosine-protein kinase Fyn (Homo sapiens) (UniProt P06241); experiment: Inhibition of Fyn at 2 uM
[4] = biological target: Mitogen-activated protein kinase 8 (Homo sapiens) (UniProt P45983); experiment: Inhibition of JNK1 at 2 uM
[5] = biological target: Dual specificity mitogen-activated protein kinase kinase 6 (Homo sapiens) (UniProt P52564); experiment: Inhibition of MKK6 at 2 uM
[6] = biological target: Rho-associated protein kinase 2 (Homo sapiens) (UniProt O75116); experiment: Inhibition of ROCK2 at 2 uM
[7] = biological target: Serine/threonine-protein kinase Sgk1 (Homo sapiens) (UniProt O00141); experiment: Inhibition of SGK at 2 uM
[8] = Half life in Sprague-Dawley rat at 4.8 mg/kg, iv; type: ADME, organism-based; parameters: dose 4.8 mg/kg, route intravenous; settings: in vivo
[9] = Volume of distribution at steady state in Sprague-Dawley rat at 4.8 mg/kg, iv; type: ADME, organism-based; parameters: dose 4.8 mg/kg, route intravenous; settings: in vivo, read-out: Vdss
[10] = AUC in Sprague-Dawley rat at 4.8 mg/kg, iv; type: ADME, organism-based; parameters: dose 4.8 mg/kg, route intravenous; settings: plasma
[11] = Volume of distribution at steady state in BALB/c mouse at 2 mg/kg, iv; type: ADME, organism-based; parameters: dose 2 mg/kg, route intravenous; settings: in vivo, read-out: Vdss
[12] = AUC in BALB/c mouse at 2 mg/kg, iv; type: ADME, organism-based; parameters: dose 2 mg/kg, route intravenous; settings: plasma
[13] = Half life in beagle dog at 13.8 mg/kg, iv; type: ADME, organism-based, Canis lupus familiaris; parameters: dose 13.8 mg/kg, route intravenous; settings: in vivo
[14] = Volume of distribution at steady state in beagle dog at 13.8 mg/kg, iv; type: ADME, organism-based, Canis lupus familiaris; parameters: dose 13.8 mg/kg, route intravenous; settings: in vivo, read-out: Vdss
[15] = Half life in Sprague-Dawley rat at 43 mg/kg, po; type: ADME, organism-based; parameters: dose 43 mg/kg, route oral; settings: in vivo
[16] = Cmax in Sprague-Dawley rat at 43 mg/kg, po; type: ADME, organism-based; parameters: dose 43 mg/kg, route oral; settings: in vivo
[17] = Oral bioavailability in Sprague-Dawley rat at 43 mg/kg; type: ADME, organism-based; settings: in vivo
[18] = Half life in BALB/c mouse at 40 mg/kg, po; type: ADME, organism-based; parameters: dose 40 mg/kg, route oral; settings: in vivo
[19] = Cmax in beagle dog at 33 mg/kg, po; type: ADME, organism-based, Canis lupus familiaris; parameters: dose 33 mg/kg, route oral; settings: in vivo
Cytochrome P450 2C19 = Cytochrome P450 2C19 (Homo sapiens, UniProt P33261); experiment: Inhibition of human CYP2C19; type: ADME
[20] = Plasma protein binding in dog; type: ADME, cell-free, Canis lupus familiaris; settings: read-out: PPB (converted)
Mus musculus [21] = experiment: Antiarthritic activity in complete Freund's adjuvant-immunized DBA/1J mouse assessed as inhibition of type 2 collagen-induced paw inflammation at 5 mg/kg, po bid measured on day 20; type: functional; settings: 480 h
Mus musculus [22] = experiment: Antiarthritic activity in complete Freund's adjuvant-immunized DBA/1J mouse assessed as inhibition of type 2 collagen-induced bone and cartilage erosion at 5 mg/kg, po bid measured on day 20; type: functional; settings: 480 h
[23] = biological target: Inhibitor of nuclear factor kappa-B kinase subunit alpha (Homo sapiens) (UniProt O15111); settings: 2 uM
Description: Inhibition of IKKa at 2 uM

[24] = biological target: Dual specificity mitogen-activated protein kinase kinase 7 (Homo sapiens) (UniProt O14733); settings: 2 uM
Description: Inhibition of MKK7 at 2 uM

[25] = biological target: Ribosomal protein S6 kinase alpha-5 (Homo sapiens) (UniProt O75582); settings: 2 uM
Description: Inhibition of MSK1 at 2 uM

[26] = biological target: Serine/threonine-protein kinase 3 (Homo sapiens) (UniProt Q13188); settings: 2 uM
Description: Inhibition of Mst2 at 2 uM

[27] = biological target: Mitogen-activated protein kinase 11 (Homo sapiens) (UniProt Q15759); settings: 2 uM
Description: Inhibition of p38beta at 2 uM

[28] = biological target: RAF proto-oncogene serine/threonine-protein kinase (Homo sapiens) (UniProt P04049); settings: 2 uM
Description: Inhibition of RAFc at 2 uM

[29] = biological target: Ribosomal protein S6 kinase alpha-2 (Homo sapiens) (UniProt Q15349); settings: 2 uM
Description: Inhibition of Rsk3 at 2 uM

[30] = biological target: Angiopoietin-1 receptor (Homo sapiens) (UniProt Q02763); settings: 2 uM
Angiopoietin-1 receptor (Homo sapiens), sequence (Q02763 whole entry): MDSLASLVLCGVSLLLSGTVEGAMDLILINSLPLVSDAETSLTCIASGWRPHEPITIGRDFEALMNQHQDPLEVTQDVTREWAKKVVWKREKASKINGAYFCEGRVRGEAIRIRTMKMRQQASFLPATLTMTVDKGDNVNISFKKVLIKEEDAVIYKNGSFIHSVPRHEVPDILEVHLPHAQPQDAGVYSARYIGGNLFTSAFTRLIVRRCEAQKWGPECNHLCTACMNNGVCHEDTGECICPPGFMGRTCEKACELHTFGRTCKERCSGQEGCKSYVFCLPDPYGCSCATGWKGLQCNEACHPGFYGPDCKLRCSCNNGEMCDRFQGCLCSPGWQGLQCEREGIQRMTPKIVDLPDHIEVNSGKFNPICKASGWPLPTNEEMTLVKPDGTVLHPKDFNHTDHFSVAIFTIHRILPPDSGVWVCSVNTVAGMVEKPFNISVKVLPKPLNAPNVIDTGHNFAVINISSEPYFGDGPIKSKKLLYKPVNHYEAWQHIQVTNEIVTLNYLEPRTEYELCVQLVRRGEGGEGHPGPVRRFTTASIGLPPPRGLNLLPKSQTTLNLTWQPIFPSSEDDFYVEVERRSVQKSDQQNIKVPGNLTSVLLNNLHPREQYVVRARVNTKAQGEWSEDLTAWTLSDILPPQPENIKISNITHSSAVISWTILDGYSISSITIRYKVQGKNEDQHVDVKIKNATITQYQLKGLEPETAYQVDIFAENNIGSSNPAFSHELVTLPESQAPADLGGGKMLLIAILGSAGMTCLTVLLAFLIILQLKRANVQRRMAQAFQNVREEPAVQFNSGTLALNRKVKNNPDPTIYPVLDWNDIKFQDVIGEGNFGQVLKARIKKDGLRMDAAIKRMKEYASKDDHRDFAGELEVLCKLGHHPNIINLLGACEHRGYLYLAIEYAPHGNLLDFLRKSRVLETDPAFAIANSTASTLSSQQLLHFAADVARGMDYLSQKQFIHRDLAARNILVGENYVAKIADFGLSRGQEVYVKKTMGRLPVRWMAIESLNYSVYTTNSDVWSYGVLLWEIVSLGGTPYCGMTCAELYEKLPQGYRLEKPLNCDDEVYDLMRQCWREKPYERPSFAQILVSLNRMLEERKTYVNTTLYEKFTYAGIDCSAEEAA
Description: Inhibition of Tie2 at 2 uM

Dual specificity mitogen-activated protein kinase kinase 6 (Homo sapiens), sequence (P52564 whole entry): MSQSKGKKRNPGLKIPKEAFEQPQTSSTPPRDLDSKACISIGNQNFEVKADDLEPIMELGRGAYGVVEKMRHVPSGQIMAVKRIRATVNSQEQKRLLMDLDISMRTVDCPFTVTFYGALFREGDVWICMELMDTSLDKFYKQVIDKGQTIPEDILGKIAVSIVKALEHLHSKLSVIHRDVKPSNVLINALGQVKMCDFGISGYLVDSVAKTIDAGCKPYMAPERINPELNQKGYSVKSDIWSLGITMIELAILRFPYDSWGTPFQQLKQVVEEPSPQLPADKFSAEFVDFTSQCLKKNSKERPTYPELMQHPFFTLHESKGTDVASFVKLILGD
Serine/threonine-protein kinase Sgk1 (Homo sapiens), sequence (O00141 whole entry): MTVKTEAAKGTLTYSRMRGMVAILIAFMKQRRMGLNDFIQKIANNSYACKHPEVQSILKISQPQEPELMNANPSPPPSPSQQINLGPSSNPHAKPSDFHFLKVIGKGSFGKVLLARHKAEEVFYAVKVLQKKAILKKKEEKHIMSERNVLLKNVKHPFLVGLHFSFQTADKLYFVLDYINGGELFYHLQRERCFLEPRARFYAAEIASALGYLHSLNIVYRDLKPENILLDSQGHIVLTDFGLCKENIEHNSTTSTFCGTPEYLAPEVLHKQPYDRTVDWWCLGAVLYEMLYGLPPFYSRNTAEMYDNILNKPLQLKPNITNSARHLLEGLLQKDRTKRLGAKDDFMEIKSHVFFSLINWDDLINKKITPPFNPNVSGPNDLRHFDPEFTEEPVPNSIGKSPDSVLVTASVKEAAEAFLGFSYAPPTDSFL
Tyrosine-protein kinase Fyn (Homo sapiens), sequence (P06241 2-537 limits assumed): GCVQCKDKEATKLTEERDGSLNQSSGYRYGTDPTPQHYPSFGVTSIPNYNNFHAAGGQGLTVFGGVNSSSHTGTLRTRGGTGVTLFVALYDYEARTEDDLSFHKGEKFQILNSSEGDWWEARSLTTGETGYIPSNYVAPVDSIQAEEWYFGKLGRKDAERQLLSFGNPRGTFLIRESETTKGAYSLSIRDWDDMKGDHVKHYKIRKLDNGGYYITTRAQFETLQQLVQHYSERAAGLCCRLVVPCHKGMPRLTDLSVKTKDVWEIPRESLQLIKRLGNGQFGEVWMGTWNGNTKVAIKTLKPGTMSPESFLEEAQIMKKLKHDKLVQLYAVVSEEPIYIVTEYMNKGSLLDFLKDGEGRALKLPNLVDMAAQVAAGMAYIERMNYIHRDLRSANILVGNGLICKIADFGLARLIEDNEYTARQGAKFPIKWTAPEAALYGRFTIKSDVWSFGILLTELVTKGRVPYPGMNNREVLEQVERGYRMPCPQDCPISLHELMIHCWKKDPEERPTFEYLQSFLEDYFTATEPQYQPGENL
RAF proto-oncogene serine/threonine-protein kinase (Homo sapiens), sequence (P04049 whole entry): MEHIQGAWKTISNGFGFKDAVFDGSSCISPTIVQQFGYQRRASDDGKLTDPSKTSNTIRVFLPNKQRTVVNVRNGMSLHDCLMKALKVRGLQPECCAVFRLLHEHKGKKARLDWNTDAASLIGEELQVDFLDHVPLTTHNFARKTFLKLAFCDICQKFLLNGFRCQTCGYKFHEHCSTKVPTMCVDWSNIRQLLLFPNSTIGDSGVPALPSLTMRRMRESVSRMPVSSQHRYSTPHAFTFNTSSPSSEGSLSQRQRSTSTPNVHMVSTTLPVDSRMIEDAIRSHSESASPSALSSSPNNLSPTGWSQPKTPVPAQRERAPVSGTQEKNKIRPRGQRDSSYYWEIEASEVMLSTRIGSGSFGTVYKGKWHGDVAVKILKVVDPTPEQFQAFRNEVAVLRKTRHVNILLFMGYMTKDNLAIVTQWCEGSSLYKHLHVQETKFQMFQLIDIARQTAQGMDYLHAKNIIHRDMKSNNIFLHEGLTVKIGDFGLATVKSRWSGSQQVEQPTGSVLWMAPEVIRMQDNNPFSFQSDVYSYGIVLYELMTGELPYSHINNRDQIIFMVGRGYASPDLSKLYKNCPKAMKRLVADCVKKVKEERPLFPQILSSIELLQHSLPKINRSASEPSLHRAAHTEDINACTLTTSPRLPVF
Ribosomal protein S6 kinase alpha-2 (Homo sapiens), sequence (Q15349 whole entry): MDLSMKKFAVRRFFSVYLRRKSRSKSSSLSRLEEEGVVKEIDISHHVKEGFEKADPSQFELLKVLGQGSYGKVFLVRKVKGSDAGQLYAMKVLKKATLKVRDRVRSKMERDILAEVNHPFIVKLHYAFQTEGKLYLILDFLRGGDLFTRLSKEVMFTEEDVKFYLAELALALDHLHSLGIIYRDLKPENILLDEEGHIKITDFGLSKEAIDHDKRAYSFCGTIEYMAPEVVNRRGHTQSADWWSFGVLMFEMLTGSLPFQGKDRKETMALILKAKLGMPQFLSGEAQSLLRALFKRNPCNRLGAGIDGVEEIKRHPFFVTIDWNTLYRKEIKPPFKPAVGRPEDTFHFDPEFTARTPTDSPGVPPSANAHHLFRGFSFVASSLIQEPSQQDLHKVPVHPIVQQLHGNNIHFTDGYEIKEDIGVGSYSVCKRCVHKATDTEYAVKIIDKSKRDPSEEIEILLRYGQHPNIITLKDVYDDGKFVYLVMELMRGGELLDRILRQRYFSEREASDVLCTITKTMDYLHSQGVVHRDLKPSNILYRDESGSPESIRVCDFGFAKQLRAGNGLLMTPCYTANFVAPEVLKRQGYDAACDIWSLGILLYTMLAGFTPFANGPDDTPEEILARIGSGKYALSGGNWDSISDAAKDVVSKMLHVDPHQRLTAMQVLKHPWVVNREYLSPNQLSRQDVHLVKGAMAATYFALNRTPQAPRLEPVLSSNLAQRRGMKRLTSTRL
Dual specificity mitogen-activated protein kinase kinase 7 (Homo sapiens), sequence (O14733 whole entry): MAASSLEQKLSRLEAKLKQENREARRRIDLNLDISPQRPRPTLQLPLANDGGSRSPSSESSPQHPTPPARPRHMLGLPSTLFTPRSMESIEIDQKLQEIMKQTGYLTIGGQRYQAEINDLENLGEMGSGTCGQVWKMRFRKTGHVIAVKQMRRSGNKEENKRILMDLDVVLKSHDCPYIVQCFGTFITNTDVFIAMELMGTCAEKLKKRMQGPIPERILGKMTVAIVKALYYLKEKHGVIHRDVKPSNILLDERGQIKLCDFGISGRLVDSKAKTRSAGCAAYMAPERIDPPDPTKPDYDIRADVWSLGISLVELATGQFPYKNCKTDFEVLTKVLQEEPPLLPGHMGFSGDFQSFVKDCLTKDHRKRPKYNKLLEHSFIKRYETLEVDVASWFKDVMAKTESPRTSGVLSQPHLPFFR
Mitogen-activated protein kinase 11 (Homo sapiens), sequence (Q15759 whole entry): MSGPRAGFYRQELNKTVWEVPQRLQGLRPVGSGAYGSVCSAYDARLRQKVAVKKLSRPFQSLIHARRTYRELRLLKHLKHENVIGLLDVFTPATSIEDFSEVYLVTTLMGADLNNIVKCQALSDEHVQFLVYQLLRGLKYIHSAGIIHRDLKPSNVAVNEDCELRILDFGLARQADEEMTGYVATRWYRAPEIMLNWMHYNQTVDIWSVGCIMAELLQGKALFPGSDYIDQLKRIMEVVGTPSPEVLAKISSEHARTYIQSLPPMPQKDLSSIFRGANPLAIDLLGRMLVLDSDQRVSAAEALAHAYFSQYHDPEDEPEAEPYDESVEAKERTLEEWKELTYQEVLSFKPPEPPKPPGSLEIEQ
Mitogen-activated protein kinase 8 (Homo sapiens), sequence (P45983 whole entry): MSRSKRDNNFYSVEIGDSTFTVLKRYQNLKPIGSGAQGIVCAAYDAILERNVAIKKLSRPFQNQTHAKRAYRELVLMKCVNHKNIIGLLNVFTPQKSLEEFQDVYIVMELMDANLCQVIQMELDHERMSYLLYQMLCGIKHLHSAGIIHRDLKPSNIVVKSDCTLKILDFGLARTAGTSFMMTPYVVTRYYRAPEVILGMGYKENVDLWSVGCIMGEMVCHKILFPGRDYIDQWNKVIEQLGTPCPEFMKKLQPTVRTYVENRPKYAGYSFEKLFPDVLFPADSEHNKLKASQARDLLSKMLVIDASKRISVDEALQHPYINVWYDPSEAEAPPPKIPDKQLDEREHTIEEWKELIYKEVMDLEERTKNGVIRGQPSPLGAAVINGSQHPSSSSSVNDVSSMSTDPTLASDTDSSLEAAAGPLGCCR

O=c1ncn2nc(Sc3ccc(F)cc3F)ccc2c1-c1c(Cl)cccc1Cl [NEFLAMAPIMOD]
IC50 [1]: > 5 µM | inhibition [2]: Active | inhibition [3]: 6% | inhibition [4]: 10% | inhibition [5]: 95% | inhibition [6]: 8% | inhibition [7]: 5% | half-life [8]: 1.9 h | Vd [9]: 3.9 L/kg | AUC [10]: 1260 ng·h/mL | Vd [11]: 2.2 L/kg | AUC [12]: 1540 ng·h/mL | half-life [13]: 1.5 h | Vd [14]: 2.3 L/kg | half-life [15]: 4.5 h | Cmax [16]: 890 ng/mL | bioavailability [17]: 56% | half-life [18]: 4.5 h | Cmax [19]: 1370 ng/mL | IC50 (Cytochrome P450 2C19): > 40 µM | fraction unbound [20]: 0.08 | inhibition in vivo at 5 mg/kg (Mus musculus [21]): 31% | inhibition in vivo at 5 mg/kg (Mus musculus [22]): 32% | inhibition [23]: 0% | inhibition [24]: 0% | inhibition [25]: 0% | inhibition [26]: 0% | inhibition [27]: 84% | inhibition [28]: 0% | inhibition [29]: 0% | inhibition [30]: 0%
